In patent US20250316716A1, “ELECTROCHEMICAL OXYGEN REDUCTION CATALYST” (TOYOTA JIDOSHA KABUSHIKI KAISHA, priority 2024, published 2025):

Columns and labels:
[1] = Water solubility of the modifier; format: physicochemical
[2] = Alcohol solubility of the modifier; format: physicochemical; conditions: organic solvent or mixture, alcohol (diacetone alcohol or ethanol)

Compound | solubility [1] | solubility [2]
Nc1nc(N)nc(N)n1 [Melamine, melamine] | ≥ 3000 µg/mL | ≥ 3000 µg/mL
NC1=NC2=NC(N)=NC3=NC(N)=NC(=N1)N23 [Melem, melem] | < 3000 µg/mL | < 3000 µg/mL
